Reference: patent publication US4977155A, “1,2,3-triazolo compounds” (priority 1988, dated 1990)
Values after ≈ are worked out from the molar mass of the structure shown. Read-outs that look alike come from different tables or passages of the source.

Tests used:
[1] = tested on: N-methyl-D-aspartate (NMDA) receptors; details: cited from earlier work
[2] = tested on: kainate receptors; details: in words, background; cited from earlier work
[3] = tested on: Quisqualate receptors; details: in words, background; cited from earlier work
[4] = target: quisqualate type receptors; test: 3H-AMPA binding (Test 1); details: rat cerebral cortical membrane homogenate; 5 nM 3H-AMPA; 0° C., 30 min, pH 7.1
Excerpt: The quisqualate receptor binding activity of the compounds of the present invention can be illustrated by determining their capability for displacing radioactively labelled 2-amino-3-hydroxy-5-methyl-4-isoxazolepropionic acid (AMPA) from the quisqualate type receptors.
The displacement activity of the compounds may be shown by determining the IC50 value which represents the concentration (μg/ml) which causes a displacement of 50% of the specific binding of ^3 H-AMPA.
^3 H-AMPA binding (Test 1)
500 μl of thawed rat cerebral cortical membrane homogenate in Tris-HCl (30 mM), CaCl2 (2.5 mM) and KSCN (100 mM) pH 7.1 were incubated at 0° C. for 30 min. with 25 μl ^3 H-AMPA (5 nM final concentration) and the test compound and buffer. Non-specific binding was determined by incubation with L-glutamic acid (600 μM final concentration). The binding reaction was terminated by adding 5 ml of ice-cold buffer followed by filtration through Whatman GF/C glass fibre filters and 2×5 ml wash with ice-cold buffer. Bound radioactivity was measured by scintillation counting. IC50 was determined by Hill analysis of at least four concentrations of test compound.

[5] = tested on: quisqualic acid stimulated Na^+ -efflux from rat striatal slices; test: Antagonism of quisqualic acid induced 22Na+ release (Test 2); format: cell-based; details: rat striatum slices; quisqualic acid 2 μg/ml; read-out: Test 2 EC50 (reduces rate of quisqualic acid stimulated sodium efflux by 50%)
Description: The quisqualate antagonism is measured by determining the EC50 value which represents the concentration which reduces the rate of quisqualic acid stimulated sodium efflux by 50%.
Antagonism of quisqualic acid induced ^22 Na^+ -release (Test 2)
Slices from rat striatum were preincubated with ^22 Na^+ for 30 min. After the ^22 Na^+ loading period, the slices were successively and every minute transferred through a series of tubes, each containing 1.5 ml of a non-radioactive physiological solution saturated with O2, with the help of a basket shaped sieve. Quisqualic acid (2 μg/ml) was present in the last 5 tubes and the compound to be tested was present in the same 5 tubes plus 3 tubes before. The amount of radioactivity in each washout tube as well as that left in the slices at the end of the experiment was measured by scintillation counting. EC50 were calculated by Hill analysis from at least three different concentrations of test compound as the concentration of test compound which reduces the efflux rate of ^22 Na^+ -ions to 50% of the efflux rate in the absence of test compound.

[6] = tested on: NMDA stimulated ^3 H-GABA release from cultured mouse cortex neurons; test: Inhibition of NMDA stimulated 3H-GABA release from cultured mouse cerebral cortex interneurons (Test 3); format: cell-based; details: Neuron, 3 μg/ml NMDA, read-out: Test 3 IC50 (inhibits 50% of NMDA induced 3H-GABA release)
Excerpt: The NMDA antagonistic properties of the compounds is illustrated by determining their capability to antagonize NMDA stimulated ^3 H-GABA release from cultured mouse cortex neurons.
The NMDA antagonistic activity of the compounds may be shown by determining the IC50 value, which represents the concentration (μg/ml) which inhibits 50% of NMDA induced ^3 H-GABA release.
Inhibition of NMDA stimulated ^3 H-GABA release from cultured mouse cerebral cortex interneurons (Test 3) Release experiments are performed using the model described by Drejer et al. (Life Sci. 38, 2077 (1986)). To cerebral cortex interneurons cultured in petri dishes (30 mm) are added 100 μg/ml 3-vinyl-GABA one hour before the experiment in order to inhibit degradation of GABA in the neurons. 30 min before the experiment 5 μCi ^3 H-GABA is added to each culture and after this preloading period the cells are washed twice with a HEPES (N-2 Hydroxyethylpiperazine-N'-2-ethanesulfonic acid) buffered saline (HBS) containing 10 mM HEPES, 135 mM NaCl, 5 mM KCl, 0.6 mM MgSO4, 1.0 mM CaCl2 and 6 mM D-glucose; pH 7 and placed in a superfusion system. This system consists of a peristaltic pump continuously delivering thermostated 37° C. superfusion medium from a reservoir to the top of a slightly-tilted petri dish. The cell monolayer at the bottom of the dish is covered with a piece of nylon mesh to facilitate dispersion of medium over the cell layer. The medium is continuously collected from the lower part of the dish and delivered to a fraction collector. Initially, the cells are superfused with HBS for 15 min (flow rate 2 ml/min). Then cells are stimulated for 30 sec every 4 min by changing the superfusion medium from HBS to a corresponding medium containing NMDA and antagonists according to the following scheme: […]
stimulation no. 1: 3 μg/ml NMDA stimulation no. 2: 3 μg/ml NMDA+0.3 μg/ml antagonist stimulation no. 3: 3 μg/ml NMDA+3 μg/ml antagonist
Test substances are dissolved in water or 48% ethanol. The final ethanol concentration in the assay must not exceed 0.1%.
The release of ^3 H-GABA in the presence of NMDA (stimulated relase in cpm) are corrected for the mean basal release (cpm) before and after the stimulation.
The stimulated release in the presence of antagonists are expressed relative to the stimulated release by NMDA alone and the IC50 value for the antagonist is calculated (the concentration (μg/ml) of the test substance which inhibits 50% of the NMDA induced ^3 H-GABA release) either from a dose response curve or from the formula: [formula] where Co is stimulated release in control assays and Cx is the stimulated release in the test assay (the calculation assumes normal mass-action interaction). 25-75% inhibition of the NMDA stimulation must be obtained, before calculation of IC50.

SMILES	Test 1 IC50 (displacement of 50% of the specific binding of 3H-AMPA) [4]	IC50 [6]	other results
O=C(O)[C@@H]1CCCN[C@H]1C(=O)O (relative stereo) [trans-2,3-PDA, trans-2,3-piperidine dicarboxylic acid]			agonist activity on NMDA receptors ([1]; in words, background): strong to moderate agonist activity
N[C@@H](CCC(=O)NCC(=O)O)C(=O)O [3-glutamyl-glycine]			selectivity for kainate receptors [2]: some selectivity for kainate receptors
Cc1onc(O)c1CC(N)C(=O)O (stereo not drawn) [AMPA, 2-amino-3-hydroxy-5-methyl-4-isoxazolepropionic acid]			agonist activity on quisqualate receptors [3]: potent agonists
N[C@H](CCCC(=O)O)C(=O)O [D-2-amino-adipic acid]			antagonist activity on NMDA receptors ([1]; in words, background): moderate antagonist activity
N[C@H](CCCCCP(=O)(O)O)C(=O)O [D-APH, 2-amino-7-phosphonoheptanoic acid]			antagonist activity on NMDA receptors ([1]; in words, background): most potent and selective antagonists
N[C@H](CCCP(=O)(O)O)C(=O)O [D-APV, 2-amino-5-phosphono-valeric acid]			antagonist activity on NMDA receptors ([1]; in words, background): most potent and selective antagonists
N[C@H](CCC(=O)O)C(=O)O [D-glutamic acid]			agonist activity on NMDA receptors [1]: strong to moderate agonist activity
Oc1nc2ccc3nn[nH]c3c2nc1O [Ex 1, 7,8 Dihydroxy-1H-1,2,3-triazolo[4,5-f]quinoxaline]	13,3 μg/ml		
O=[N+]([O-])c1cc2nc(O)c(O)nc2c2[nH]nnc12 [Ex 2, 7,8-Dihydroxy-4-nitro-1H-1,2,3-triazolo[4,5-f]quinoxaline]	0,85 μg/ml	0.26 µg/mL (≈ 1.05 µM)	EC50 [5]: 10 µg/mL (≈ 40.3 µM)
N#Cc1cc2nc(O)c(O)nc2c2[nH]nnc12 [Ex 4, 4-Cyano-7,8-dihydroxy-1H-1,2,3-triazolo[4,5-f]quinoxaline]	10 µg/mL		
CCOC(=O)CC[C@H](N)C(=O)OCC [GDEE, Glutamic acid diethyl ester]			antagonist activity on quisqualate receptors [3]: selective but very weak antagonist
N[C@H](C(=O)O)c1cc(=O)[nH]o1 [Ibotenic acid]			agonist activity on NMDA receptors ([1]; in words, background): strong to moderate agonist activity
N[C@@H](CCC(=O)O)C(=O)O [L-glutamic acid]			agonist activity on quisqualate receptors [3]: potent agonists
N[C@@H](CCS(=O)(=O)O)C(=O)O [L-homocysteic acid]			agonist activity on NMDA receptors ([1]; in words, background): strong to moderate agonist activity
N[C@H](CCC[C@H](N)C(=O)O)C(=O)O [diaminopimelic acid]			antagonist activity on NMDA receptors ([1]; in words, background): moderate antagonist activity
N[C@@H](Cn1oc(=O)[nH]c1=O)C(=O)O [quisqualic acid]			agonist activity on quisqualate receptors [3]: activated selectively

Second part, led by results:

Test 1 IC50 (displacement of 50% of the specific binding of 3H-AMPA) [4]	IC50 [6]	SMILES	other results
0,31 μg/ml	0.096 µg/mL (≈ 0.366 µM)	Cn1nnc2c([N+](=O)[O-])cc3nc(O)c(O)nc3c21 [Ex 6, 7,8-Dihydroxy-1-methyl-4-nitro-1H-1,2,3-triazolo[4,5-f]quinoxaline]	EC50 [5]: 4.1 µg/mL (≈ 15.6 µM)
0,41 μg/ml	0.14 µg/mL (≈ 0.566 µM)	O=[N+]([O-])c1cc2nc(O)c(O)nc2c2[nH]ncc12 [Ex 9, 7,8-Dihydroxy-4-nitro-1H-pyrazolo[3,4-f]quinoxaline]	
0,36 μg/ml	0.14 µg/mL (≈ 0.534 µM)	Cn1nc2c([N+](=O)[O-])cc3nc(O)c(O)nc3c2n1 [Ex 11, 7,8-Dihydroxy-2-methyl-4-nitro-2H-1,2,3-triazolo[4,5-f]quinoxaline]	
0,07 μg/ml	0.11 µg/mL (≈ 0.42 µM)	Cn1nnc2c3nc(O)c(O)nc3cc([N+](=O)[O-])c21 [Ex 13, 7,8-Dihydroxy-3-methyl-4-nitro-3H-1,2,3-triazolo[4,5-f]quinoxaline]	
0,19 μg/ml	0.73 µg/mL (≈ 3.01 µM)	Cn1nnc2c3nc(O)c(O)nc3cc(C#N)c21 [Ex 15, 4-Cyano-7,8-dihydroxy-3-methyl-3H-1,2,3-triazolo[4,5-f]quinoxaline]	
0,21 μg/ml		O=[N+]([O-])c1cc2nc(O)c(O)nc2c2scnc12 [Ex 17, 7,8-Dihydroxy-4-nitrothiazolo[5,4-f]quinoxaline]	
0,23 μg/ml	0.13 µg/mL (≈ 0.522 µM)	O=[N+]([O-])c1cc2nc(O)c(O)nc2c2nonc12 [Ex 24, 7,8-Dihydroxy-4-nitro-l,2,5-oxadiazolo(3,4-f)quinoxaline]	
0,39 μg/ml	0.1 µg/mL (≈ 0.386 µM)	O=[N+]([O-])c1cc2nc(O)c(O)nc2c2nccnc12 [Ex 35, 2,3-Dihydroxy-6-nitropyrazino(2,3-f)quinoxaline]	
0,39 μg/ml	0.14 µg/mL (≈ 0.487 µM)	Cc1nc2c([N+](=O)[O-])cc3nc(O)c(O)nc3c2nc1C [Ex 36, 2,3-Dihydroxy-8,9-dimethyl-6-nitropyrazino(2,3-f)quinoxaline]	
0,13 μg/ml	0.09 µg/mL (≈ 0.339 µM)	O=[N+]([O-])c1cc2nc(O)c(O)nc2c2nsnc12 [Ex 38, 7,8-Dihydroxy-4-nitro-1,2,5-thiadiazolo(3,4-f)quinoxaline]	
1,9 μg/ml		Oc1nc2ccc3sccc3c2nc1O [Ex 39, 2,3-Dihydroxythieno[3,2-f]quinoxaline]	
